The source of these data is patent publication US20090275586A1, “HETEROCYCLIC INHIBITORS OF PDE4” (KALYPSYS, INC., priority 2006, published 2009).

One assay has as its system recombinant human PDE4. As to conditions: reported value; read-out: IC50 with respect to inhibiting recombinant human PDE4; cited from earlier work.
For another assay, the target named is T1, PDE4B (Homo sapiens, UniProt Q07343).
T1 construct: hexa-histidine (His6) (N); made in house
The experiment in a line: PDE4 IMAP Assay. In kind it is biochemical. The following applies: 2 h; Activity at 10 μM; catalytic domain of PDE4B; read-out: PDE IMAP Assay. From the text:
Compounds may be screened for functional potency in in vitro biochemical assays for their ability to inhibit the activity of phosphodiesterase (PDE) enzymes. A commercial PDE assay, Molecular Device's PDE IMAP assay, was modified and utilized to measure the inhibitory activity of compounds on PDE isoforms. The IMAP technology is based on the high affinity binding of phosphate by immobilized metal (MIII) coordination complexes on nanoparticles. This IMAP “binding reagent” complexes with phosphate groups on the nucleotide monophosphates generated in the reaction. Such binding causes a change in the rate of the molecular motion of the nucleotide, and results in an increase in the fluorescence polarization value observed for the fluorescent label attached to the substrate. PDE inhibitors prevent the generation of nucleotide monophosphates and the subsequent increase in polarization value observed for the fluorescent label attached to the substrate. The catalytic domain of PDE4B was fused to an amino-terminus hex-histadine affinity tag and purified. PDE4B enzyme was incubated with compounds for 10 minutes. Fluorescently labeled cyclic AMP substrates were then added to the PDE enzyme mix and incubated for 2 hours at room temperature. IMAP binding reagent was then added to the enzyme mix, incubated for 10-30 minutes and fluorescent polarization of the fluorescently labeled substrate was read either with the Perkin Elmer Viewlux or Molecular Devices Acquest or Analyst. Roflumilast and Rolipram are the positive controls used in the assay.

A further assay has as its system PDE4. The experiment in a line: PDE4 Cellular CNG Assay. The format is cell-based. As to conditions: Activity at 10 μM; HEK293 cells stably expressing the CNG channel. The source says:
Compounds may be screened for functional potency in in vitro cellular assays for their ability to inhibit the activity of phosphodiesterase (PDE) enzymes. A commercial membrane potential assay, Molecular Device's membrane potential assay kit, was modified and utilized to measure the inhibitory activity of compounds on PDE isoforms in living cells. The cellular assay utilizes genetically engineered cyclic nucleotide-gated (CNG) channels as cyclic-AMP (cAMP) sensors. On binding cAMP these ion channels open, allowing the flow of cations across the plasma membrane. CNG channel activity can be monitored by measuring Ca^2+ influx in cell populations. The influx of Ca causes a change in membrane potential that is measured by voltage sensitive dyes. PDE inhibitors prevent the degradation of cAMP that is generated by adenylyl cyclases that are activated upon stimulation of G protein-coupled receptors (GPCR) linked to the cAMP pathway. In brief, Molecular Device's membrane potential dye was added to HEK293 cells stably expressing the CNG channel and incubated for 2 hours at room temperature. Test compounds were then added to the cells and incubated for 15 minutes. A GPCR agonist was then added to the cells to stimulate the cAMP pathway and incubated for 45 minutes. Fluorescent measurements were then conducted with either the Molecular Devices Acquest or Analyst. PDE inhibitors will inhibit the degradation of cAMP and cause an increase in fluorescent signal. Roflumilast and Rolipram are the positive controls used in the assay.

The term IC50 denotes the concentration that gives 50% inhibition.

T1 sequence (Q07343 330-659 limits assumed, species assumed): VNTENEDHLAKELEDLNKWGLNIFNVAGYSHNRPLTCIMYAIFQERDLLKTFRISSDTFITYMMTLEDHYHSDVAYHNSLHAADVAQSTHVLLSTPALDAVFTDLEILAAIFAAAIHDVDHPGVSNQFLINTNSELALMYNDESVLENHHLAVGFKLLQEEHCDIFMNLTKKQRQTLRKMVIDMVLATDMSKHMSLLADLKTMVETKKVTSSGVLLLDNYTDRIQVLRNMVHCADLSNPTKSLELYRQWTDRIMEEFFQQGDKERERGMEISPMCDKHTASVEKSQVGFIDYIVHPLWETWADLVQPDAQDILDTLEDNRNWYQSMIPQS

Take `COc1ccc(C2CNC(=O)C2)cc1OC1CCCC1` (centres unmarked) [rolipram]: in the assay with recombinant human PDE4, the 50% inhibitory concentration (IC50) is approximately 200 nM. For the molecule `COc1ccc(-c2cnnn2-c2ccc(NC(=O)c3c(F)cccc3F)cc2)cc1OC` [Example 22, N-(4-(5-(3,4-dimethoxyphenyl)-1H-1,2,3-triazol-1-yl)phenyl)-2,6-difluorobenzamide], at PDE4B, the inhibition at 10 µM is not below 50%. Besides, the “Cellular CNG Assay” value in the assay with PDE4 was “+ (+indicates Activity ≧ 50% at 10 μM)”.

For the molecule `N#Cc1sc2nc(C3CC3)cc(-c3ccc(F)cc3)c2c1N` [Example 9, 3-Amino-6-cyclopropyl-4-(4-fluorophenyl)thieno[2,3-b]pyridine-2-carbonitrile], on PDE4B, the inhibition at 10 µM is not below 50%. For the same molecule, the “Cellular CNG Assay” value in the assay on PDE4 is listed as “+ (+indicates Activity ≧ 50% at 10 μM)”. Regarding `COc1ccc(S(=O)(=O)N2CC(C)(C)Oc3ccc(NC(=O)c4ccccc4OC)cc32)cc1OC` [Example 11, N-(4-(3,4-dimethoxyphenylsulfonyl)-2,2-dimethyl-3,4-dihydro-2H-benzo[b][1,4]oxazin-6-yl)-2-methoxybenzamide], at PDE4B, the inhibition at 10 µM was not below 50%. Moreover, the “Cellular CNG Assay” value in the assay with PDE4 is on record as “+ (+indicates Activity ≧ 50% at 10 μM)”. Take `Cc1c(Cc2ccccc2)c(N2CCNCC2)n2c(nc3ccccc32)c1C#N` [Example 25, 2-Benzyl-3-methyl-1-piperazin-1-yl-benzo[4,5]imidazo[2-a]pyridine-4-carbonitrile]: the inhibition at 10 µM on PDE4B is not below 50%. Moreover, the “Cellular CNG Assay” value in the assay on PDE4 was “− (−indicates Activity < 50% at 10 μM)”. On the same counts, the results for `COc1ccc(-c2cc(C(F)(F)F)n3ncc(C(=O)Nc4cccc(CCC#N)c4)c3n2)cc1OC` [Example 18, N-(3-(2-cyanoethyl)phenyl)-5-(3,4-dimethoxyphenyl)-7-(trifluoromethyl)pyrazolo[1,5-a]pyrimidine-3-carboxamide] are not below 50% and “+ (+indicates Activity ≧ 50% at 10 μM)”.
